The subject of the assay is Tel22 (DNA, G4) AGGGTTAGGGTTAGGGTTAGGG
Put plainly: CD melting, SVD global fit. The following applies: 150 mM KCl; 50 mM phosphate, 0.3 mM EDTA, pH 7; 60 μM ligand, 30 μM DNA; not irradiated; 3–4.

For the molecule `C[n+]1ccc(-c2c3nc(c(-c4cc[n+](C)cc4)c4ccc([nH]4)c(-c4cc[n+](C)cc4)c4nc(c(-c5cc[n+](C)cc5)c5ccc2[nH]5)C=C4)C=C3)cc1`, the Tm is ~ 3 degrees.

The values are drawn from paper PMC10218862 (2023).
